Assay results published in patent publication US9549921B2, “Heterocyclic compounds and methods of use thereof for the treatment of hepatitis C” (priority 2014, dated 2017).
Where two headings read alike, the source gives them in different places.

Key:
HCV replicon genotype 1a = assay: HCV replicon assay, genotype 1a (cell ELISA for NS3/4A); format: cell-based, hepatitis C virus
Description: (§1) The HCV NS5B inhibitory activity of the present compounds may be tested using assays known in the art. The HCV NS5B polymerase inhibitors described herein have activities in a genotype 1b replicon assay as described in the Examples. The assay is performed by incubating a replicon harboring cell-line in the presence of inhibitor for a set period of time and measuring the effect of the inhibitor on HCV replicon replication either directly by quantifying replicon RNA level, or indirectly by measuring enzymatic activity of a co-encoded reporter enzyme such as luciferase or β-lactamase. By performing a series of such measurements at different inhibitor concentrations, the effective inhibitory concentration of the inhibitor (EC50 or EC90) is determined. See Jan M. Vrolijk et al., A replicons-based bioassay for the measurement of interferons in patients with chronic hepatitis C, 110 J. VIROLOGICAL METHODS 201 (2003). Such assays may also be run in an automated format for high through-put screening. See Paul Zuck et al., A cell-based β-lactamase reporter gene assay for the identification of inhibitors of hepatitis C virus replication, 334 ANALYTICAL BIOCHEMISTRY 344 (2004).
(§2) Measurement of inhibition by compounds was performed using the HCV replicon system. Several different replicons encoding different HCV genotypes or mutations were used. In addition, potency measurements were made using different formats of the replicon assay, including different ways of measurements and different plating formats. See Jan M. Vrolijk et al., A replicons-based bioassay for the measurement of interferons in patients with chronic hepatitis C, 110 J. VIROLOGICAL METHODS 201 (2003); Steven S. Carroll et al., Inhibition of Hepatitis C Virus RNA Replication by 2′-Modified Nucleoside Analogs, 278(14) J. BIOLOGICAL CHEMISTRY 11979 (2003). However, the underlying principles are common to all of these determinations, and are outlined below.
(§3) Stable neomycin phosphotransferase encoding replicons-harboring cell lines were used, so all cell lines were maintained under G418 selection prior to the assay. Potency was deteremined using a cell ELISA assay with an antibody to the replicons encoded NS3/4a protease. See Caterina Trozzi et al., In Vitro Selection and Characterization of Hepatitis C Virus Serine Protease Variants Resistant to an Active-Site Peptide Inhibitor, 77(6) J. Virol. 3669 (2003). To initiate an assay, replicon cells were plated in the presence of a dilution series of test compound in the absence of G418. Typically, the assays were performed in a 96-well plate formate for manual operation, or a 384-well plate format for automated assay. Replicon cells and compound were incubated for 96 hours. At the end of the assay, cells were washed free of media and compound, and the cells were then lysed. RNA was quantified indirectly through detection of replicon-encoded NS3/4A protein levels, through an ELISA-based assay with an antibody specific for NS3/4A. IC50 determinations were calculated as a percentage of a DMSO control by fitting the data to a four-parameter fit function and the data obtained is provided in the table below.
(§4) Data for selected compounds of the present invention was obtained for genotypes 1a and 1b using this method and is provided in the table below: […]

HCV replicon genotype 1b = assay: HCV replicon assay, genotype 1b (cell ELISA for NS3/4A); format: cell-based, hepatitis C virus
Description: as §1, §2, §3, §4

[1] = Hepatitis C virus, 96 h, read-out: 1a IC50 (nM), HCV genotype 1a replicon cells, 96 hours incubation, NS3/4A ELISA readout, % of DMSO control
[2] = Hepatitis C virus, 96 h, read-out: 1b IC50 (nM), HCV genotype 1b replicon cells, 96 hours incubation, NS3/4A ELISA readout, % of DMSO control
[3] = read-out: 1a IC50, HCV genotype 1a replicon cells, 96 hours incubation, NS3/4A ELISA readout, % of DMSO control
[4] = read-out: 1b IC50, HCV genotype 1b replicon cells, 96 hours incubation, NS3/4A ELISA readout, % of DMSO control

Structure (SMILES)	IC50 (HCV replicon genotype 1a; [1])	IC50 (HCV replicon genotype 1b; [2])	IC50 (HCV replicon genotype 1a; [3])	IC50 (HCV replicon genotype 1b; [4])
CNC(=O)c1c(-c2ccc(F)cc2)oc2cc(N(C)S(C)(=O)=O)c([C@H]3CN(C(=O)c4cc5cccc(F)c5[nH]4)CCO3)cc12 (single isomer, unassigned) [Example 6, 5-(4-(7-fluoro-1H-indole-2-carbonyl)morpholin-2-yl)-2-(4-fluorophenyl)-N-methyl-6-(N-methylmethylsulfonamido)benzofuran-3-carboxamide]	11.1 nM	17.4 nM	–	–
CNC(=O)c1c(-c2ccc(F)cc2)oc2cc(N(C)S(C)(=O)=O)c([C@H]3CN(C(=O)c4cc5cccc(F)c5[nH]4)CCO3)cc12 (single isomer, unassigned) [Example 7, 5-(4-(7-fluoro-1H-indole-2-carbonyl)morpholin-2-yl)-2-(4-fluorophenyl)-N-methyl-6-(N-methylmethylsulfonamido)benzofuran-3-carboxamide]	–	–	5.79 nM	11.6 nM
CNC(=O)c1c(-c2ccc(F)cc2)oc2cc(N(C)S(C)(=O)=O)c([C@H]3CN(C(=O)c4cc5c(F)cccc5n4C)CCO3)cc12 (single isomer, unassigned) [Example 8, 5-(4-(4-fluoro-1-methyl-1H-indole-2-carbonyl)morpholin-2-yl)-2-(4-fluorophenyl)-N-methyl-6-(N-methylmethylsulfonamido)benzofuran-3-carboxamide]	28.2 nM	36.9 nM	–	–
CNC(=O)c1c(-c2ccc(F)cc2)oc2cc(N(C)S(C)(=O)=O)c([C@H]3CN(C(=O)c4cc5c(F)cccc5n4C)CCO3)cc12 (single isomer, unassigned) [Example 9, 5-(4-(4-fluoro-1-methyl-1H-indole-2-carbonyl)morpholin-2-yl)-2-(4-fluorophenyl)-N-methyl-6-(N-methylmethylsulfonamido)benzofuran-3-carboxamide]	–	–	54 nM	67.8 nM
CNC(=O)c1c(-c2ccc(F)cc2)oc2cc(N(C)S(C)(=O)=O)c([C@H]3CN(c4nc5ccccc5o4)CCO3)cc12 (single isomer, unassigned) [Example 10, 5-(4-(benzo[d]oxazol-2-yl)morpholin-2-yl)-2-(4-fluorophenyl)-N-methyl-6-(N-methylmethylsulfonamido)benzofuran-3-carboxamide]	16 nM	26.6 nM	–	–
CNC(=O)c1c(-c2ccc(F)cc2)oc2cc(N(C)S(C)(=O)=O)c([C@H]3CN(c4nc5ccccc5o4)CCO3)cc12 (single isomer, unassigned) [Example 11, 5-(4-(benzo[d]oxazol-2-yl)morpholin-2-yl)-2-(4-fluorophenyl)-N-methyl-6-(N-methylmethylsulfonamido)benzofuran-3-carboxamide]	–	–	21.4 nM	17.2 nM
CNC(=O)c1c(-c2ccc(F)cc2)oc2cc(N(C)S(C)(=O)=O)c([C@@H]3CCN(C(=O)c4cc5c(F)cccc5n4C)C3)cc12 (single isomer, unassigned) [Example 14, 5-(1-(4-fluoro-1-methyl-1H-indole-2-carbonyl)pyrrolidin-3-yl)-2-(4-fluorophenyl)-N-methyl-6-(N-methylmethylsulfonamido)benzofuran-3-carboxamide]	–	–	25.9 nM	2.77 nM
CNC(=O)c1c(-c2ccc(F)cc2)oc2cc(N(C)S(C)(=O)=O)c([C@@H]3CCN(C(=O)c4cc5c(F)cccc5n4C)C3)cc12 (single isomer, unassigned) [Example 15, 5-(1-(4-fluoro-1-methyl-1H-indole-2-carbonyl)pyrrolidin-3-yl)-2-(4-fluorophenyl)-N-methyl-6-(N-methylmethylsulfonamido)benzofuran-3-carboxamide]	–	–	125 nM	11.2 nM
CNC(=O)c1c(-c2ccc(F)cc2)oc2cc(N(C)S(C)(=O)=O)c([C@@H]3CCCN(C(=O)Cc4ccc(F)cc4)C3)cc12 (single isomer, unassigned) [Example 17, 2-(4-fluorophenyl)-5-(1-(2-(4-fluorophenyl)acetyl)piperidin-3-yl)-N-methyl-6-(N-methylmethylsulfonamido)benzofuran-3-carboxamide]	138 nM	58.2 nM	–	–
